Where “and” joins values, the source holds several entries; their conditions need not be identical. Equal entries are not always repeated. After the bases stand the sugars from the 5' end (letter, count) and the backbone: PS all phosphorothioate, else s phosphorothioate and o phosphodiester by linkage. Methylation of C is not given here. e = 2'-O-(2-methoxyethyl) (MOE); k = constrained ethyl (cEt); d = 2'-deoxy (DNA)
Target: SOD1
Details: ASO

TTCACAGGCTTGAATGA (sugars e2 k2 d9 k2 e2, PS)
target mRNA inhibition (HepG2, 5 µM): 16%

AATGTTTATCAGGATACATT (sugars e5 d10 e5, PS)
target mRNA inhibition (HepG2, 5 µM): 54%

TATTGGGCGATCCCAAT (sugars e3 k2 d7 k2 e3, PS)
target mRNA inhibition (HepG2, 3 µM): 3%

ACTGGGCCGTCGCCCTTCAG (sugars e5 d10 e5, PS)
target mRNA inhibition (HepG2, 4 µM): 26%

AGGATAACAGATGAGTT (sugars e2 k2 d9 k2 e2, PS)
target mRNA inhibition (HepG2, 0.1875 µM): 32% | target mRNA inhibition (HepG2, 0.75 µM): 62% | target mRNA inhibition (HepG2, 3 µM): 89% | target mRNA inhibition (HepG2, 4 µM): 86% | target mRNA inhibition (HepG2, 12 µM): 98%

GCAATGGTCTCCTGAGAGTG (sugars e5 d10 e5, PS)
target mRNA inhibition (HepG2, 5 µM): 57%

GTTTAATGTTTATCAGG (sugars e2 k2 d9 k2 e2, linkages s1 o3 s9 o1 s2)
target mRNA inhibition (A431, 0.12 µM): 25% | target mRNA inhibition (A431, 0.6 µM): 69% | target mRNA inhibition (A431, 3 µM): 89% | target mRNA inhibition (A431, 15 µM): 95% | target mRNA inhibition (HepG2, 0.222 µM): 76% | target mRNA inhibition (HepG2, 0.667 µM): 90% | target mRNA inhibition (HepG2, 2 µM): 94% | target mRNA inhibition (HepG2, 6 µM): 93%

GATTTAAGTCTGGCAAA (sugars e2 k2 d9 k2 e2, PS)
target mRNA inhibition (HepG2, 5 µM): 35%

AAGTGCCATACAGGGTT (sugars e2 k2 d8 k2 e3, PS)
target mRNA inhibition (HepG2, 5 µM): 15%

CCCAAGTCATCTGCTTT (sugars e3 k2 d7 k2 e3, PS)
target mRNA inhibition (HepG2, 3 µM): 72%

TTTTATTCACAGGCTTG (sugars e3 k2 d7 k2 e3, PS)
target mRNA inhibition (HepG2, 3 µM): 28%

TCGGCCACACCATCTTTGTC (sugars e5 d10 e5, PS)
target mRNA inhibition (HepG2, 5 µM): 32% and 28%

TACACCACAAGCCAAAC (sugars e2 k2 d9 k2 e2, PS)
target mRNA inhibition (HepG2, 4 µM): 63%

TTTATAGGCCAGACCTCCGC (sugars e5 d10 e5, PS)
target mRNA inhibition (HepG2, 4 µM): 68% and 69% | target mRNA inhibition (HepG2, 12 µM): 82%

ATTTCTACAGCTAGCAGGAT (sugars e5 d10 e5, PS)
target mRNA inhibition (HepG2, 4 µM): 69% | target mRNA inhibition (HepG2, 12 µM): 82%

GTCTGGCAAAATACAGG (sugars e2 k2 d9 k2 e2, PS)
target mRNA inhibition (HepG2, 5 µM): 38%

TTATCAGGATACATTTC (sugars e2 k2 d9 k2 e2, PS)
target mRNA inhibition (HepG2, 4 µM): 67%

AGGTCATTGAAACAGAC (sugars e2 k2 d8 k2 e3, PS)
target mRNA inhibition (HepG2, 5 µM): 40%

ACAGGGTTTTTATTCAC (sugars e2 k2 d9 k2 e2, PS)
target mRNA inhibition (HepG2, 5 µM): 47%

ACTTTATAGGCCAGACCTCC (sugars e5 d10 e5, PS)
target mRNA inhibition (HepG2, 4 µM): 64%

GGACCTGCACTGGTACA (sugars e3 k2 d7 k2 e3, PS)
target mRNA inhibition (HepG2, 3 µM): 7%

ACACCACAAGCCAAACG (sugars e2 k2 d9 k2 e2, PS)
target mRNA inhibition (HepG2, 4 µM): 45%

CACCACAAGCCAAACGA (sugars e2 k2 d9 k2 e2, PS)
target mRNA inhibition (HepG2, 4 µM): 46%

AGTTTCTCACTACAGGT (sugars e2 k2 d9 k2 e2, PS)
target mRNA inhibition (HepG2, 5 µM): 50%

TTAATGTTTATCAGGA (sugars kekeddddddddekek, linkages s1 o3 s8 o1 s2)
target mRNA inhibition (A431, 0.12 µM): 3% | target mRNA inhibition (A431, 0.6 µM): 45% | target mRNA inhibition (A431, 3 µM): 65% | target mRNA inhibition (A431, 15 µM): 81% | target mRNA inhibition (HepG2, 0.222 µM): 53% | target mRNA inhibition (HepG2, 0.667 µM): 82% | target mRNA inhibition (HepG2, 2 µM): 91% | target mRNA inhibition (HepG2, 6 µM): 96%

AATGTTTATTGGGCGAT (sugars e2 k2 d8 k2 e3, PS)
target mRNA inhibition (HepG2, 4 µM): 61%

CAGTGTGCGGCCAATGATGC (sugars e5 d10 e5, PS)
target mRNA inhibition (HepG2, 5 µM): 0%

ATTGAAACAGACATTTTAAC (sugars e5 d10 e5, PS)
target mRNA inhibition (HepG2, 5 µM): 0%

TTTAATGCTTCCCCACACCT (sugars e5 d10 e5, PS)
target mRNA inhibition (HepG2, 4 µM): 15%

AAGTCTCCAACATGCCTCTC (sugars e5 d10 e5, PS)
target mRNA inhibition (HepG2, 5 µM): 20% and 6%

CAATTACACCACAAGCC (sugars e3 k2 d7 k2 e3, PS)
target mRNA inhibition (HepG2, 3 µM): 33%

TTCTACAGCTAGCAGGA (sugars e2 k2 d9 k2 e2, PS)
target mRNA inhibition (HepG2, 0.1875 µM): 10% | target mRNA inhibition (HepG2, 0.75 µM): 57% | target mRNA inhibition (HepG2, 3 µM): 84% | target mRNA inhibition (HepG2, 4 µM): 79% | target mRNA inhibition (HepG2, 12 µM): 94%

ATGCCTCTCTTCATCCT (sugars e3 k2 d7 k2 e3, PS)
target mRNA inhibition (HepG2, 3 µM): 0%

GCCTCATAATAAGTGCC (sugars e2 k2 d9 k2 e2, PS)
target mRNA inhibition (HepG2, 5 µM): 33%

CTTTTAATAGCCTCATA (sugars e2 k2 d8 k2 e3, PS)
target mRNA inhibition (HepG2, 5 µM): 45%

TAATACCCATCTGTGAT (sugars e3 k2 d7 k2 e3, PS)
target mRNA inhibition (HepG2, 3 µM): 4%

GACACATCGGCCACACCATC (sugars e5 d10 e5, PS)
target mRNA inhibition (HepG2, 5 µM): 45% and 30%

AACATGGAATCCATGCA (sugars e3 k2 d7 k2 e3, PS)
target mRNA inhibition (HepG2, 3 µM): 10%

CTCATAATAAGTGCCAT (sugars e2 k2 d8 k2 e3, PS)
target mRNA inhibition (HepG2, 5 µM): 30%

TTGGATTCTTTTAATAG (sugars e3 k2 d7 k2 e3, PS)
target mRNA inhibition (HepG2, 3 µM): 8%

TAATGTTTATCAGGATA (sugars e2 k2 d9 k2 e2, PS)
target mRNA inhibition (HepG2, 0.1875 µM): 28% | target mRNA inhibition (HepG2, 0.75 µM): 66% | target mRNA inhibition (HepG2, 3 µM): 91% | target mRNA inhibition (HepG2, 4 µM): 85% and 82% | target mRNA inhibition (HepG2, 12 µM): 93% and 98%

CCTTTAATGCTTCCCCACAC (sugars e5 d10 e5, PS)
target mRNA inhibition (HepG2, 4 µM): 1%

TCTGTGATTTAAGTCTG (sugars e2 k2 d8 k2 e3, PS)
target mRNA inhibition (HepG2, 5 µM): 49%

GGCGATCCCAATTACAC (sugars e2 k2 d9 k2 e2, PS)
target mRNA inhibition (HepG2, 4 µM): 66%

TAATAAGTGCCATACAG (sugars e2 k2 d9 k2 e2, PS)
target mRNA inhibition (HepG2, 5 µM): 30%

GTCATTGAAACAGACAT (sugars e3 k2 d7 k2 e3, PS)
target mRNA inhibition (HepG2, 3 µM): 23%

Source: the OligoGym collection
